How the values were obtained:
Pyrenophora teres = experiment: In vivo test on Pyrenophora teres (barley net blotch); conditions: 288 h, barley plants (Express variety), grading 12 days after contamination, good (at least 70%) or total protection
Description: In Vivo Test on Pyrenophore teres (Barley Net Blotch)
(§1) The active ingredients tested are prepared by homogenisation in a mixture of acetone/tween/DMSO, then diluted with water to obtain the desired active material concentration. Barley plants (Express variety) in starter cups, sown on a 50/50 peat soil-pozzolana substrate and grown at 12° C., are treated at the 1-leaf stage (10 cm tall) by spraying with the active ingredient prepared as described above. Plants, used as controls, are treated with the mixture of acetone/tween/DMSO/water not containing the active material.
After 24 hours, the plants are contaminated by spraying them with an aqueous suspension of Pyrenophora teres spores (12,000 spores per ml). The spores are collected from a 12-day-old culture. The contaminated barley plants are incubated for 24 hours at about 20° C. and at 100% relative humidity, and then for 12 days at 80% relative humidity.

[1] = logP by HPLC on reversed-phase column (C 18), EEC Directive 79/B31 Annex V.A8, methods A and B; format: physicochemical; conditions: reversed-phase HPLC column (C 18), linear gradient 10% to 90% acetonitrile
Description: Calibration was carried out using unbranched alkan-2-ones (having 3 to 16 carbon atoms) with known logP values (determination of the logP values by the retention times using linear interpolation between two successive alkanones).

[2] = tested on: Mycosphaerella graminicola; experiment: In vivo test on Mycosphaerella graminicola (wheat leaf spot); conditions: Zymoseptoria tritici, wheat plants (Scipion variety), grading 21 to 28 days after contamination, good (at least 70%) or total protection, read-out: protection (% of efficacy)
Description: In vivo Test on Mycosphaerella graminicola (Wheat Leaf Spot)
The active ingredients tested are prepared by homogenisation in a mixture of acetone/tween/DMSO, and then diluted with water to obtain the desired active material concentration.
Wheat plants (Scipion variety), sown on a 50/50 peat soil-pozzolana substrate in starter cups and grown at 12° C., are treated at the 1-leaf stage (10 cm tall) by spraying with the active ingredient prepared as described above.
Plants, used as controls, are treated with the mixture of acetone/tween/DMSO/water not containing the active material.
After 24 hours, the plants are contaminated by spraying them with an aqueous suspension of Mycosphaerella graminicola spores (500 000 spores per ml). The spores are collected from a 7-day-old culture. The contaminated wheat plants are incubated for 72 hours at 18° C. and at 100% relative humidity, and then for 21 to 28 days at 90% relative humidity.
Grading (% of efficacy) is carried out 21 to 28 days after the contamination, in comparison with the control plants.

Puccinia recondita = experiment: In vivo test on Puccinia recondita f. sp. tritici (wheat brown rust); conditions: 240 h, wheat plants (Scipion variety), grading 10 days after contamination, good (at least 70%) or total protection
Description: In vivo Test on Puccinia reconditef. Sp. tritici (Wheat Brown Rust)
as §1, with “Wheat” for “Barley”, “(Scipion” for “(Express”, “on” for “on a”
After 24 hours, the plants are contaminated by spraying the leaves with an aqueous suspension of Puccinia recondita spores (100,000 spores per ml). The spores are collected from a 10-day-old contaminated wheat and are suspended in water containing 2.5 ml/of tween 80 10%. The contaminated wheat plants are incubated for 24 hours at 20° C. and at 100% relative humidity, and then for 10 days at 20° C. and at 70% relative humidity. Grading is carried out 10 days after the contamination, in comparison with the control plants.

Podosphaera leucotricha = experiment: In vivo test on Podosphaera leucotricha (apple mildew), preventive spray; conditions: 240 h, apple young plants, evaluated 10 days after inoculation, good (at least 70%) to total protection
Description: In Vivo Test on Podosphaera leucotncha (Apple Mildew) [table] To produce a suitable preparation of active compound, 1 part by weight of active compound is mixed with the stated amounts of solvent and emulsifier, and the concentrate is diluted with water to the desired concentration. Young plants are sprayed with the preparation of active compound at the stated rate of application. After the spray coating has dried on, the plants are inoculated with an aqueous spore suspension of the causal agent of apple mildew (Podosphaera leucobicha). The plants are then placed in a greenhouse at approximately 23° C. and a relative atmospheric humidity of approximately 70%. The test is evaluated 10 days after the inoculation. Under these conditions, good (at least 70%) to total protection is observed at a dose of 100 ppm with the following compounds: 104, 160, 176, 177, 180, 186, 187, 188, 192, 194, 196, 198, 203, 204, 205, 207, 209, 210, 211, 212, 213, 218 and 446.

[3] = LogP method B: HPLC reversed-phase C 18, 40° C., 0.1% aqueous formic acid / acetonitrile
[4] = HPLC reversed-phase C 18, method B: 40° C., 0.1% aqueous formic acid and acetonitrile
[5] = HPLC reversed-phase C 18, method A: 43° C., 0.1% aqueous phosphoric acid, acetonitrile

chromatographic logP [1, 3]	Compound	pest or weed control at 500 ppm (Pyrenophora teres) [%]	pest or weed control at 500 ppm [2] [%]	pest or weed control at 500 ppm (Puccinia recondita) [%]	also measured
3.9	Cn1nc(C(F)(F)F)c(C(=O)N(C2CC2)S(=O)(=O)c2c(O)sc(O)c2Br)c1F [Compound 436]	≥ 70			
	Cn1nc(C(F)(F)F)c(C(=O)N(C2CC2)S(=O)(=O)c2cccc(O)c2O)c1F [Compound 357]	≥ 70			chromatographic logP [1, 4]: 3.3
	CCCCOc1ccc(S(=O)(=O)N(C(=O)c2cn(C)nc2OC)C2CC2)cc1 [Compound 262]	≥ 70	≥ 70	≥ 70	
	Cc1nn(C)c(F)c1C(=O)N(C1CC1)S(=O)(=O)c1ccc2c(c1)CCC(C)(C)O2 [Compound 456]	≥ 70	≥ 70	≥ 70	
4.4	CCOc1nn(C)cc1C(=O)N(C1CC1)S(=O)(=O)c1ccc(Oc2ccc(C(F)(F)F)cc2)c(Br)c1 [Compound 550]		≥ 70	≥ 70	
	COc1nn(C)cc1C(=O)N(C1CC1)S(=O)(=O)c1ccc(-c2cccc3ccccc23)cc1 [Compound 258]	≥ 70	≥ 70		
4.8	CCOc1nn(C)cc1C(=O)N(C1CC1)S(=O)(=O)c1ccc(Oc2ccc(O)c(C(F)(F)F)c2)c(Cl)c1 [Compound 556]		≥ 70	≥ 70	
	CCc1nn(C)c(F)c1C(=O)N(C1CC1)S(=O)(=O)c1ccccc1Br [Compound 374]	≥ 70	≥ 70		chromatographic logP [1, 4]: 2.7
4.3	CCOc1nn(C)cc1C(=O)N(C1CC1)S(=O)(=O)c1ccc(Oc2cccc(O)c2)c(O)c1 [Compound 546]	≥ 70		≥ 70	
4.3	CCOc1nn(C)cc1C(=O)N(C1CC1)S(=O)(=O)c1ccc(Oc2ccc(C)cc2)c(O)c1 [Compound 542]	≥ 70	≥ 70	≥ 70	
	Cc1cccc(Oc2ccc(S(=O)(=O)N(C(=O)c3cn(C)nc3C(F)F)C3CC3)cc2)c1 [Compound 254]	≥ 70	≥ 70		
	Cc1nn(C)c(F)c1C(=O)N(C1CC1)S(=O)(=O)c1ccc(C(F)(F)F)cc1 [Compound 188]				pest or weed control at 100 ppm (Podosphaera leucotricha): ≥ 70%; chromatographic logP [1, 5]: 3.1
3.5	CCOc1nn(C)cc1C(=O)N(C1CC1)S(=O)(=O)c1ccc(Oc2ccc(OC)c(OC)c2)c(O)c1 [Compound 528]		≥ 70	≥ 70	
	COc1nn(C)cc1C(=O)N(C1CC1)S(=O)(=O)c1ccc(Oc2ccc(Cl)cc2)cc1Cl [Compound 501]	≥ 70	≥ 70		
	COc1nn(C)cc1C(=O)N(C1CC1)S(=O)(=O)c1ccc(Sc2ccccc2)cc1 [Compound 266, N-cyclopropyl-3-methoxy-1-methyl-N-{[4-(phenylthio)phenyl]sulfonyl}-1H-pyrazole-4-carboxamide]	≥ 70		≥ 70	
	COc1nn(C)cc1C(=O)N(C1CC1)S(=O)(=O)c1c(O)cc(C(F)(F)F)cc1O [Compound 396]	≥ 70			chromatographic logP [1, 4]: 3

chromatographic logP [1, 3]	Compound	pest or weed control at 500 ppm (Pyrenophora teres) [%]	pest or weed control at 500 ppm [2] [%]	pest or weed control at 500 ppm (Puccinia recondita) [%]	also measured
	COc1nn(C)cc1C(=O)N(C1CC1)S(=O)(=O)c1ccc(Oc2ccc(Br)cc2)cc1 [Compound 269]	≥ 70		≥ 70	
3.8	CCOc1nn(C)cc1C(=O)N(C1CC1)S(=O)(=O)c1ccc(Oc2ccc(OC)cc2)c(O)c1 [Compound 531]	≥ 70	≥ 70	≥ 70	
4.3	CCOc1nn(C)cc1C(=O)N(C1CC1)S(=O)(=O)c1ccc(Oc2cccc(C(F)(F)F)c2F)c(O)c1 [Compound 547]		≥ 70	≥ 70	
4.5	CCOc1nn(C)cc1C(=O)N(C1CC1)S(=O)(=O)c1ccc(Oc2ccc(Br)cc2)c(O)c1 [Compound 552]		≥ 70	≥ 70	
	CCc1nn(C)c(F)c1C(=O)N(C1CC1)S(=O)(=O)c1ccc(C(C)(C)C)cc1 [Compound 381]	≥ 70			
	CCc1nn(C)c(F)c1C(=O)N(C1CC1)S(=O)(=O)c1c(O)cc(C(F)(F)F)cc1O [Compound 387]	≥ 70	≥ 70		chromatographic logP [1, 4]: 3.8
	Cc1nn(C)c(F)c1C(=O)N(C1CC1)S(=O)(=O)c1c(O)cccc1O [Compound 218]				pest or weed control at 100 ppm (Podosphaera leucotricha): ≥ 70%; chromatographic logP [1, 5]: 2.52
	COc1nn(C)cc1C(=O)N(C1CC1)S(=O)(=O)c1ccc(Oc2cccc(N(C)C)c2)c(Cl)c1 [Compound 502]		≥ 70	≥ 70	
	COc1nn(C)cc1C(=O)N(C1CC1)S(=O)(=O)c1ccccc1O [Compound 211]				pest or weed control at 100 ppm (Podosphaera leucotricha): ≥ 70%; chromatographic logP [1, 5]: 1.94
	CCc1nn(C)c(F)c1C(=O)N(C1CC1)S(=O)(=O)c1ccc(C(F)(F)F)cc1Br [Compound 375]	≥ 70	≥ 70		chromatographic logP [1, 4]: 3.6
	CCCCOc1ccc(S(=O)(=O)N(C(=O)c2c(C)nn(C)c2F)C2CC2)cc1 [Compound 263]	≥ 70	≥ 70		
	Cc1nn(C)c(F)c1C(=O)N(C1CC1)S(=O)(=O)c1cccnc1O [Compound 446]				pest or weed control at 100 ppm (Podosphaera leucotricha): ≥ 70%; chromatographic logP ([1]; LogP method A: HPLC reversed-phase C 18, 43° C., 0.1% aqueous phosphoric acid / acetonitrile): 1.96
	COc1nn(C)cc1C(=O)N(C1CC1)S(=O)(=O)c1ccc(Oc2ccc(C(F)(F)F)cc2)cc1 [Compound 268]	≥ 70			
5	CCOc1nn(C)cc1C(=O)N(C1CC1)S(=O)(=O)c1ccc(Cc2cc(O)cc(O)c2)c(O)c1 [Compound 559]		≥ 70	≥ 70	
4.1	CCOc1nn(C)cc1C(=O)N(C1CC1)S(=O)(=O)c1ccc(Oc2cccc(N(C)C)c2)c(O)c1 [Compound 539]		≥ 70	≥ 70	

Source: patent US7932283B2, “Fungicide N-cyclopropyl-sulfonylamide derivatives” (Bayer Cropscience AG, priority 2006, dated 2011)
